Test results published in paper PMC4000412, “Novel LHRH-receptor-targeted cytolytic peptide, EP-100: first-in-human phase I study in patients with advanced LHRH-receptor-expressing solid tumors” (Cancer Chemotherapy and Pharmacology, 2014).
Entries after “also recorded” stand apart in the source; their conditions may differ. Where two headings read alike, the source gives them in different places. Peptide text beside a SMILES is read from it.

What was measured:
[1] = Plasma pharmacokinetics of EP-100 after IV infusion (phase I); type: in vivo, human; conditions: for time at which C max was reached: majority of patients
Method: Blood samples (approximately 5 mL) were collected on Cycle 1 Day 1 at the following times: pre-dose, 10 and 20 min after start of EP-100 infusion, prior to completion of the infusion (−3 min) and 2, 15, 30, 60 (±2), 120 (±2) and 240 (±5) min after the infusion. Concentrations of EP-100 in EDTA-anticoagulated plasma were assayed by a validated HPLC-Mass Spectrometry method developed at Covance (Indianapolis, IN). EP-100 and the internal standard were extracted from human plasma by solid-phase extraction and analyzed using liquid chromatography with tandem mass spectrometric detection (MS/MS). The lower limit of quantitation for EP-100 in human plasma was 0.025 μg/mL, with linearity demonstrable to 5 μg/mL (upper limit of quantitation). Plasma PK analysis for EP-100 was performed using non-compartmental methods with Phoenix™ WinNonlin® version 6.1 or higher (Pharsight Corp., Mountain View, CA). Concentration–time profiles were constructed from the plasma sample data. Estimates of the area under the plasma concentration time curve (AUC) and slope of the terminal decay phase were used to calculate values of the following pharmacokinetic parameters: apparent terminal phase half-life (t 1/2), total body clearance (CL), apparent time of maximum concentration (T max) and apparent volume of distribution (V z). Means and standard deviations are presented where applicable. Phoenix™ WinNonlin® was used to identify the terminal linear phase of the concentration–time profile. The number of points chosen was determined based on the largest regression coefficient, R ^2, obtained. A minimum of three data points was used for determination of λ z, the elimination rate constant, determined by the slope of the terminal linear phase. The R ^2 had to be ≥0.8 to be included in the pharmacokinetic results. Summary statistics were prepared using Microsoft Excel 2007, and graphics were prepared with SigmaPlot™ version 11.2 (Systat Software Inc., Richmond, CA).

[2] = Antidrug antibodies (anti-EP-100) ELISA in human serum; type: in vivo; conditions: any dose level
Method: ADA were evaluated using an enzyme linked immunoassay validated for the detection of antibodies against EP-100 (anti-EP-100) (Icon plc, formerly Prevalere Life Sciences, LLC, Whitesboro, NY). Antibodies were produced in rabbits against the lytic peptide moiety of EP-100 (APC 338983). Antibodies against EP-100 in human serum were detected by coating 96-well microtiter plates with peptide 338983. At least two wells from each plate were coated with human IgG at 500 ng/mL as controls for the goat antihuman horseradish peroxidase detector. Rabbit anti-EP-100 polyclonal antibody was used as a positive control. The plates were washed, and a mixture of goat antirabbit HRP and goat antihuman HRP and tetramethylbenzidine peroxide substrate were added, and the color development determined in a spectrophotometer at 450 and 620 nm wavelength. The developed color was proportional to the amount of anti-EP-100 antibody in the sample. The anti-EP-100 antibodies in serum were quantified from a calibration curve prepared from the positive control and ranged from 500 to 32,000 ng/mL in 100 % human serum.

[3] = tested on: advanced LHRH-receptor-expressing solid tumors; experiment: Antitumor activity by RECIST version 1.1, tumor biomarkers and CTC; type: in vivo, human
Method: A history and physical examination were conducted pre-study and before every cycle. A complete blood count, serum electrolytes and chemistries were evaluated pre-study and then weekly. Tumor response or progression was assessed by imaging studies at baseline and after every 2 cycles. RECIST version 1.1 criteria were used to assess response.
FSH and LH levels as well as testosterone in men and estradiol levels in women were obtained on Days 1, 8, 15 and 22 within 24 h prior to dosing. Testosterone and estradiol levels were measured on Day 1 only after Cycle 1 and at off study assessment. Blood was collected for circulating tumor cells (CTC) prior to dosing on Day 1 of the first cycle. Patients with positive CTC at baseline also had blood collected for CTC analysis prior to dosing on Day 1 of each subsequent cycle. Additional studies included plasma cortisol, adrenocorticotropin (ACTH), thyroxine (T4) and thyroid-stimulating hormone (TSH) and blood for tumor specific biomarker analysis (at investigator’s discretion), all obtained prior to Day 1 dosing with each cycle and at off study assessment. Samples for antidrug antibodies (ADA) were collected on Day 1 of Cycle 1 and then on Day 1 of every odd cycle.

[4] = tested on: human cancer cell lines expressing the LHRH receptor; conditions: cited from earlier work
From the text: EP-100 is a synthetic 28 amino acid consisting of the LHRH natural ligand joined to an 18 amino acid cationic α-helical lytic peptide (CLIP-71) without a linker. LHRH delivers the lytic peptide to cancer cells via specific binding to cell-surface LHRH receptors. Although EP-100’s exact mechanism of action has not yet been resolved, cancer cell membrane surface characteristics are believed to play a critical role.

[5] = cited from earlier work; for histamine release (clinical signs: swelling, redness or raised areas): pre-clinical studies; for well tolerated dose (as high as): repeated dose, ref Esperance data on file
Method: Clinical signs of histamine release were eliminated in a female dog and lessened in a male dog when diphenhydramine was administered. Therefore, histamine release may cause IRDRs, but it remains unclear how EP-100 triggers IRDRs in humans and why the reaction is seen in skin only. Among patients experiencing IRDRs, hematolo ...

[6] = ref Esperance data on file, cited from earlier work
Method: A conservative first-in-human starting dose of 0.6 mg/m^2 was chosen, based on the repeat-dose toxicity studies in dogs (which appeared to be the most sensitive species). The initial dose schedule of one 30 min infusion weekly was pre ...

[7] = tested on: LHRH-receptor-positive cell lines; conditions: in vitro; cited from earlier work
From the text: (§1) A phase 2 clinical trial te ...

[8] = tested on: breast cancer model; conditions: in vivo breast cancer model; ref Esperance, data on file; cited from earlier work
From the text: as §1

CC(C)C[C@H](NC(=O)CNC(=O)[C@H](Cc1ccc(O)cc1)NC(=O)[C@H](CO)NC(=O)[C@H](Cc1c[nH]c2ccccc12)NC(=O)[C@H](Cc1c[nH]cn1)NC(=O)[C@@H]1CCC(=O)N1)C(=O)N[C@@H](CCCNC(=N)N)C(=O)N1CCC[C@H]1C(=O)NCC(=O)N[C@@H](CCCCN)C(=O)N[C@@H](Cc1ccccc1)C(=O)N[C@@H](C)C(=O)N[C@@H](CCCCN)C(=O)N[C@@H](Cc1ccccc1)C(=O)N[C@@H](C)C(=O)N[C@@H](CCCCN)C(=O)N[C@@H](CCCCN)C(=O)N[C@@H](Cc1ccccc1)C(=O)N[C@@H](C)C(=O)N[C@@H](CCCCN)C(=O)N[C@@H](Cc1ccccc1)C(=O)N[C@@H](C)C(=O)N[C@@H](CCCCN)C(=O)N[C@@H](CCCCN)C(=O)N[C@@H](Cc1ccccc1)C(=O)N[C@@H](C)C(=O)N[C@@H](CCCCN)C(=O)O [EP-100] (HELM PEPTIDE1{[Glp].H.W.S.Y.G.L.R.P.G.K.F.A.K.F.A.K.K.F.A.K.F.A.K.K.F.A.K}$$$$V2.0; C-terminus assumed)
increase in C max with dose ([1]; 0.6-40 mg/m^2, data highly variable): slightly greater than dose proportional
time at which C max was reached ([1]; EP-100 given over 30 min IV): 20 to 40 min
time at which C max was reached ([1]; EP-100 given over 60 min IV): 40 to 60 min
plasma concentrations versus concentrations active in vitro ([1]; doses of 5.2 mg/m^2 and above): reached the predicted “therapeutic” concentrations
volume of distribution, V z ([1]; doses of 7.8 to 17 mg/m2 IV): 2,400 to 2,666 mL
clearance ([1]; human, plasma, 0.6 mg/m2, dose 0.6 mg/m^2 IV): 299 mL/min
Vd ([1]; human, plasma, 0.6 mg/m2, dose 0.6 mg/m^2 IV, read-out: volume of distribution, V z): 4.35 L
clearance ([1]; human, plasma, 5.2 mg/m2, dose 5.2 mg/m^2 IV): 143 mL/min
Vd ([1]; human, plasma, 5.2 mg/m2, dose 5.2 mg/m^2 IV, read-out: volume of distribution, V z): 1.56 L
clearance ([1]; human, plasma, 7.8 mg/m2, dose 7.8 mg/m^2 IV): 223 mL/min
clearance ([1]; human, plasma, 11.7 mg/m2, dose 11.7 mg/m^2 IV): 222 mL/min
clearance ([1]; human, plasma, 17 mg/m2, dose 17 mg/m^2 IV): 110 mL/min
AUC(0-inf) ([1]; human, plasma, 40 mg/m2, highest dose level tested (40 mg/m^2), IV infusion, mean ± SD, read-out: mean AUC0–∞ (converted)): 5430 ng·h/mL
Cmax ([1]; human, plasma, 40 mg/m2, highest dose level tested (40 mg/m^2), IV infusion, mean ± SD, read-out: mean C max): 4760 ng/mL
half-life ([1]; human, plasma, 40 mg/m2, patients, IV infusion, highest dose tested (40 mg/m^2), read-out: terminal half-life): ~15 min
Vd ([1]; human, plasma, doses of 7.8 to 17 mg/m2 IV, read-out: volume of distribution, V z per body weight): ~0.06 L/kg
antibodies to EP-100 (ADA) [2]: not detected
objective tumor responses (RECIST version 1.1) ([3]; 37 patients, EP-100 single agent): No complete or partial tumor responses; also recorded: No objective tumor responses
treatment-related change in tumor biomarkers (CA-125 or PSA) or CTC values ([3]; patients): no treatment-related decreases
clinical benefit: patients with stable disease for 16 weeks or longer ([3]; seven of 37 patients, EP-100 single agent): 19%
release of cell-death proteases from cells ([4]; in vitro, low micromolar concentrations): released from cells within minutes
incubation time to complete cell lysis ([4]; in vitro): 1 h
in vitro activity level ([4]; various human cancer cell lines from solid tumors and hematological malignancies expressing the LHRH receptor, ref Esperance data on file, 37): sub-micromolar
histamine release (clinical signs: swelling, redness or raised areas) ([5]; beagle dogs): may trigger histamine release
histamine release (clinical signs: swelling, redness or raised areas) ([5]; mice): may trigger histamine release
well tolerated dose (as high as) ([5]; dogs): 2.0 mg/kg
well tolerated dose (as high as) ([5]; mice): 2.0 mg/kg
highest non-severely toxic dose ([6]; repeat-dose animal studies): 2.0 mg/kg/dose
pharmacologic effect on pituitary LH and FSH ([6]; some animals, with reduction in uterine and epididymal weights): reduction in pituitary production
effect of combination with pgp substrates (doxorubicin, paclitaxel, vinorelbine, vincristine) and non-pgp substrates (cisplatinum, 5-fluorouracil) [7]: reversion of drug resistance and potentiation of toxicity
tolerability of combination EP-100 with paclitaxel [8]: well tolerated
